Test results published in patent publication EP2018861A1, “5HT6-Ligands such as sulfonamide derivatives in drug-induced weight-gain” (Laboratorios del Dr. Esteve S.A., priority 2007, dated 2009).

Key:
[1] = target: T1, human 5-HT6 receptors (Homo sapiens, UniProt P50406); test: Radiolabelled ligand-receptor binding ([3H]-LSD) on cloned/transfected human 5-HT6 receptors; details: equated from the pKi value
T1 construct: purchased Perkin-Elmer; host or cells: HEK-293 (stably transfected), membranes
T1 sequence (P50406 whole entry): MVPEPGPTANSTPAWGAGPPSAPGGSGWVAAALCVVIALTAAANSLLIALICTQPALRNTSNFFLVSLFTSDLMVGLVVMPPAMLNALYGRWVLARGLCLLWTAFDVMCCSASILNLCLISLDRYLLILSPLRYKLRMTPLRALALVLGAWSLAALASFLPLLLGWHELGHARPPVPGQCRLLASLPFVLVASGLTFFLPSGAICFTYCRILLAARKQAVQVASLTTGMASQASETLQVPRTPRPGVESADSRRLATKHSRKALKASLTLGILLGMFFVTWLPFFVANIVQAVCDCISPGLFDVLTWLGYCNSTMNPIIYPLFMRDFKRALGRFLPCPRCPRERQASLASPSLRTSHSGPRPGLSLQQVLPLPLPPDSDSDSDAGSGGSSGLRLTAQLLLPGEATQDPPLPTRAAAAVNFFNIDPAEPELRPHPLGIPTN
Protocol: To investigate the binding properties of 5-HT6 receptor ligands to human 5-HT6 receptors, transfected HEK-293 membranes from Perkin-Elmer and [3H]-LSD (NEN), as the radioligand, were used. The assay was carried out in 96-well plates with a total reaction volume of 200 µl, containing 100 µl of membrane suspension (35 µg protein/well), 10 µl of [3H]-LSD (2.7 nM) in either the absence or presence of 90 µl of either buffer or methiothepin (5 µM) for total and non-specific binding, respectively. Binding buffer contained 50 mMTris-HCl, 10 mM MgCl2 and 0.5 mM EDTA at pH 7.4. Plates were incubated at 37 °C for 60 minutes. After the incubation period, 170 µl of incubate were transferred to MultiScreen HTS, FC plates (Millipore), filtered and plates were washed 3 times with ice-cold 50mM Tris-HCl (pH 7.4). Filters were dried and counted at approximately 40% efficiency in a MicroBeta scintillation counter (Perkin-Elmer) using 25 µl per well of EcoScint liquid scintillation cocktail.

[2] = Feeding study: olanzapine-induced weight-gain and hyperphagia in rats on a high-fat diet; assay type: in vivo, female Sprague-Dawley rats; details: olanzapine 3 mg/kg po; for Mean body weight (g) Day 15: after 14 days of treatment, high-fat diet; for Mean body weight (g) Day 15 / Mean body weight (g) Day 0: n=10; for Mean body weight (g) Day 0: before treatment (baseline)
Protocol: The experiment was performed on 40 female Sprague-Dawley rats (originally in the weight range 250-300 g). The animal room was maintained at a temperature of 21±4°C and 55±20% humidity and on a reversed phase light-dark cycle (lights off for 8 h from 09.30-17.30 h) during which time the room was illuminated by red light. Animals had free access to powdered high fat diet (VRF1 plus 20% lard). The diet was contained in a glass feeding jar with an aluminium lid with a 3-4 cm hole cut in it to allow access to the food. Animals were housed singly in polypropylene cages with wire grid floors to enable the food intake of each rat to be recorded. Polypropylene trays containing cage pads were placed beneath each cage to detect any food spillage. Animals were accustomed to these new conditions (individual housing and the wire-grid floor cages) for at least 14 days before the start of the baseline readings.
Approximately a week before the start of the study, animals were weighed (to the nearest 0.1 g using an electronic top-pan balance) and allocated into 4 weight-matched treatment groups, each containing 10 animals. Following a 7 day baseline run-in period, during which the animals were dosed orally with vehicle (0.5% hydroxypropylmethylcellulose), to acclimatise them to dosing/handling, the rats were given treatments, described in the Table below, for 14 days.
Food intake and body weight were measured once daily. Variations in body weight were accounted for by expressing the food intake results in terms of g/kg rat weight.
(§1) Statistical comparisons between the body weights of the different treatment groups were made by analysis of covariance followed by multiple t tests (two-tailed) to compare each treatment group with the vehicle-treated controls. For the body weight data (body weights recorded each day), the weights of the animals on Day 1 (ie immediately before the first drug treatment) were used as the covariate. Thus, means were adjusted for differences in body weight between the groups on Day 1 and standard errors of the mean (SEM) were calculated from the residuals of the statistical model. All mean body weight values on Day 1 are identical (and SEM are therefore zero) because the analysis of covariance adjusts them all to equal the 'grand mean' of the values of this day.
Statistical comparisons between the food intakes of the different treatment groups were made by analysis of covariance followed by multiple t tests (two-tailed) to compare each treatment group with the vehicle-treated controls. Food intake of the animals at baseline (ie average of Day -6 to Day 0) was used as the covariate. Standard errors of the mean (SEM) were calculated from the residuals of the statistical model.
Analysis of body weights and average daily food intakes were also performed to analyse cumulative food intake and body weight changes. Analysis of covariance followed by post-hoc Student's t-test (two-tailed) was used to compare the average daily food intakes over Week 1 and Week 2 for COMPOUND 1 treatment group versus (a) the vehicle-treated and (b) the olanzapine-treated groups of rats. The body weights of all groups of rats before and after treatment were statistically compared pair-wise using Student's paired t-test (two-tailed).

[3] = Feeding study in dietary-induced obese (DIO) rats, comparison with sibutramine; assay type: in vivo, female Wistar rats; details: for body weight compared with the vehicle-treated controls / daily food intake: 28 days; for body weight compared with the vehicle-treated controls / daily food intake / days on which the decreases of food intake were statistically significant versus the vehicle-treated control group / weighed less than the vehicle-treated controls: COMPOUND 1 30 mg/kg po bid; for body weight compared with the vehicle-treated controls: sibutramine 5 mg/kg/day po once daily (Figure 4); for daily food intake: sibutramine 5 mg/kg/day po once daily (Figure 5); for days on which the decreases of food intake were statistically significant versus the vehicle-treated control group / weighed less than the vehicle-treated controls: sibutramine 5 mg/kg/day po; for weighed less than the vehicle-treated controls: end of treatment period (Day 28); for weight reductions: over the 28 daily treatment period, DIO rat (Figure 4)
Protocol: The experiment was performed on female Wistar rats (originally in the weight range 250-300 g). The rats were housed in pairs in polypropylene cages with solid floors and sawdust bedding at a temperature of 21±4°C and 55±20% humidity. Animals were maintained on a reverse phase light-dark cycle (lights off for 8 h from 09.30-17.30 h) during which time the room was illuminated by red light. Animals had free access to powdered high fat diet (VRF1 plus 20% lard), ground chocolate, ground peanuts and tap water at all times. The three different diets were contained in separate glass feeding jars with aluminum lids with a 3-4 cm hole cut in them to allow access to the food. Animals were housed in pairs for twelve weeks for the induction of obesity. Animals were then housed singly in polypropylene cages with wire grid floors to enable the food intake of each rat to be recorded. Polypropylene trays with cage pads were placed beneath each cage to detect any food spillage. Animals were accustomed to these new conditions (individual housing and the wire-grid floor cages) for at least 14 days before the start of the baseline readings.
At the start of the first DIO study, animals were weighed (to the nearest 0.1 g using an electronic top-pan balance) and allocated into 3 weight-matched treatment groups, each containing 10 animals. Following a 7 day baseline run-in period, during which time all animals were dosed orally once a day with vehicle (0.5% hydroxypropylmethylcellulose), rats were dosed for 28 days with vehicle at 0 and 6 h or test compound either COMPOUND 1 (30 mg/kg, p.o., twice a day at 0 and 6 h) or sibutramine (5 mg/kg, p.o. at 0 h / vehicle p.o. at 6 h). The first compound dose was given at the onset of the 8 h dark period (0 h). This strategy was taken to maximise the impact of any inhibitory effect of the compounds on food intake as rats are predominantly nocturnal feeders. Six hours later, animals were dosed again with either vehicle or compounds.
Food intake and body weight were measured once daily. Variations in body weight and energy levels of the different types of food were accounted for by expressing the food intake results in terms of kJ/kg rat weight.
as §1, with “body weights and daily food intakes of the” for “body weights of the”, “treatment groups have been made by” for “treatment groups were made by”, “followed by Dunnett's test to compare” for “followed by multiple t tests (two-tailed) to compare”, “(body weights each day),” for “(body weights recorded each day),”

[4] = target: rat variant of the 5-HT6 receptor (Rattus norvegicus, UniProt P31388); details: Romero et al, 2006; cited from earlier work
[5] = target: human variant of the 5-HT6 receptor (Homo sapiens, UniProt P50406); details: Romero et al, 2006; cited from earlier work
[6] = 5-HT6 antagonists; Svartengren et al, 2004; Shacham et al, 2006; cited from earlier work
[7] = target: 5-HT6 receptors (Rattus norvegicus, UniProt P31388); details: Roth et al, 1994; cited from earlier work
Chain of 5-HT6 receptors (P31388 whole entry): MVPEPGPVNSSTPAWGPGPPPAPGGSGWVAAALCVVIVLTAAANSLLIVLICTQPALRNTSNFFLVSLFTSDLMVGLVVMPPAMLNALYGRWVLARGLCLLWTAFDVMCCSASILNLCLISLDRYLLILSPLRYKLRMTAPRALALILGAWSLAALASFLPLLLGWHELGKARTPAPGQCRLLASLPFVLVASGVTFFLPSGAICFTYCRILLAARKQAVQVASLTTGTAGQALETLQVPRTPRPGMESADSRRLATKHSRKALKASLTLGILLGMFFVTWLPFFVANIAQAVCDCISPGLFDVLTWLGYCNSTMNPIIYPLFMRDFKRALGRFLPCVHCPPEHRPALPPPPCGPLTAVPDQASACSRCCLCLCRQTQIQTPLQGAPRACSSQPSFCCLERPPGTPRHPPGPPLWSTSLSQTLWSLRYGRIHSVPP

[8] = repeated sibutramine administration, 14 days (Figure 7); cited from earlier work

In the case of `CN(C)CCc1c[nH]c2ccc(NS(=O)(=O)c3ccc4c(Cl)cccc4c3)cc12` [COMPOUND 1, 5-Chloro-naphthalene-2-sulfonic acid [3-(2-dimethylamino-ethyl)-1H-indol-5-yl]-amide], the Ki [1] is reported as 0.74 nM, the “body weight compared to the vehicle + vehicle-treated control” value ([2]; 14 days, COMPOUND 1 30 mg/kg po bid, high-fat diet (Figure 1)) is reported as “gradual decrease in body weight” and the “daily food intake compared to the vehicle-treated controls” value ([2]; 14 days, COMPOUND 1 30 mg/kg po bid, high-fat diet (Figure 2)) is reported as “markedly reduced their food intakes”. The “cumulative intake of food over the first week compared to the vehicle controls” value ([2]; Week 1, COMPOUND 1 30 mg/kg po bid (Figure 3)) was “statistically lower (p < 0.001)”, the “Mean body weight (g) Day 15” value ([2]; COMPOUND 1 30 mg/kg po bid) was 289.5 ± 6.1 g and the “Mean body weight (g) Day 0” value ([2]; COMPOUND 1 30 mg/kg po bid) was 292.8 ± 7.2 g. For the same compound, the “body weight compared with the vehicle-treated controls” value [3] was “marked and sustained decrease in the body weights”, the daily food intake [3] was “reduction in daily food intake” and the “days on which the decreases of food intake were statistically significant versus the vehicle-treated control group” value [3] was “Day 2 to Day 8”. The “weighed less than the vehicle-treated controls” value [3] was 15.6%, the weight reductions [3] was “greater than 10%” and the “functionality at the 5-HT6 receptor” value [4] was “agonist”. For the same compound, the “functionality at the 5-HT6 receptor” value [5] was “agonist”.

In the case of `Cc1cc2c(s1)Nc1ccccc1N=C2N1CCN(C)CC1` [Olanzapine], the “Mean body weight (g) Day 15” value ([2]; COMPOUND 1 30 mg/kg po bid) is reported as 333.0 ± 8.2 g and the “Mean body weight (g) Day 0” value ([2]; COMPOUND 1 30 mg/kg po bid) is reported as 296.9 ± 7.2 g.

In the case of `COc1cc(Cl)cc(C(C)Nc2cc(N3CCNCC3)ccc2S(C)(=O)=O)c1OC.Cl` (stereo not shown) [PRX-07034], the “food intake and body weight in obese rodents” value [6] is given as “reduce food intake and produce sustained weight-loss”.

In the case of `OC1(c2ccc(Cl)c(C(F)(F)F)c2)CCN(CCCC(c2ccc(F)cc2)c2ccc(F)cc2)CC1` [penfluridol], the “affinity for this 5-HT receptor subtype (5-HT6)” value (“affinity” below) [7] is listed as “no relevant affinity”.

In the case of `CCN1CCC[C@H]1CNC(=O)c1c(O)c(Cl)cc(Cl)c1OC` [raclopride], the “affinity” value [7] is listed as “no relevant affinity”.

In the case of `C[C@@H]1CN(CCCn2c3ccccc3c3ccccc32)C[C@H](C)N1` [rimcazole], the “affinity” value [7] is given as “no relevant affinity”.

For `CC(C)CC(N(C)C)C1(c2ccc(Cl)cc2)CCC1` (stereo not shown) [sibutramine], the “body weight compared with the vehicle-treated controls” value [3] was “significant body weight-loss”, the daily food intake [3] was “significant reduction of food intake” and the “days on which the decreases of food intake were statistically significant versus the vehicle-treated control group” value [3] was “Day 1 to Day 5”. The “weighed less than the vehicle-treated controls” value [3] was 10.8%, the weight reductions [3] was “greater than 10%” and the “effect on the weight-gain evoked by olanzapine” value [8] was “only partially to attenuate the weight-gain”.
